These results are taken from patent publication US20230241088A1, “COMPOSITION FOR PREVENTING OR TREATING LUNG CANCER COMPRISING ORTHO-TOPOLIN RIBOSIDE AS ACTIVE INGREDIENT” (CHUNG-ANG UNIVERSITY INDUSTRY-ACADEMY COOPERATION FOUNDATION, priority 2022, published 2023).

The test system of this experiment is H1437. The experiment in a line: MTT cell viability assay, H1437. It is filed as cell-based, Human. Particulars: 48 hours. As to the method:
Human NSCLC cell lines A549, H1437, H2087, H522, and HCC827 were obtained from the Korean Cell Line Bank (KCLB, Seoul, Korea). These cells were cultured in RPMI-1640 medium (Gibco, N.Y., USA) supplemented with 10% FBS (Gibco) and 1% penicillin-streptomycin (HyClone Laboratories, Logan, Utah, USA). All cell lines were cultured under standard conditions (5% CO2, humid environment, 37° C.). A549 cells were seeded at a density of 1×10^4 cells/well and H1437, H2087, H522, HCC827, and MRCS cells at a density of 2×10^4 cells/well in 96-well plates and were cultured until cells reach approximately 70-80% confluency. The NSCLC cells were treated with plant hormones for 48 hours. Stock solution of each plant hormone was diluted with culture medium, wherein concentrations of DMSO, water, methanol, and ethanol in the culture medium were below 1% (v/v). The half-maximal inhibitory concentration (IC50) was calculated using CompuSyn software (ComboSyn Inc., Paramus, N.J., USA).
The inhibitory effect of plant hormones and their derivatives was investigated on 5 NSCLC cell lines (A549, H1437, H2087, H522, and HCC827). The NSCLC cells were treated with ABA, Cor, ethephon, GR-24, IAA, KR, MJ, N6b, N6i, oTR, and SS-HCS at concentrations of 0.1, 0.5, 1, 5, 10, 50, and 100 μM. Cell viability and IC50 values for 48 hours were investigated by performing the MTT assay.
(In general: Formazan colour is commonly taken as a measure of viable cells.)

`OC[C@H]1O[C@@H](n2cnc3c(NCc4ccccc4O)ncnc32)[C@H](O)[C@@H]1O` [oTR, ortho topolin riboside] yielded a half-inhibitory concentration (IC50) of 50 ± 6.55 µM.

Usually IC50 stands for the concentration at which inhibition is half-maximal. High values mean weaker potency in that assay, low ones greater potency in that assay.
